# Legend:
# [1] = Plasma pharmacokinetics after per os enrofloxacin alone or with per os propolis (HPLC-FL, non-compartmental analysis); details: rabbit plasma, CPR = metabolite of ENR
# Procedure: (§1) This study was carried out under ideal conditions for rabbits, with ad libitum food and water. A total of 12 New Zealand White female rabbits, aged 4–6 months and weighing 2500–3000 g, were used in this study. The rabbits were randomly allocated into two groups, and each group consisted of six animals in the first phase of the study. This study was performed according to a two-phase longitudinal pharmacokinetic design. A 40-day elimination period was allowed between the treatments.
# (§2) The collected blood samples were centrifuged at 13,000 rpm for 10 min, and plasma was removed and stored at −20 °C until HPLC analysis.
# The mobile phase consisted of acetonitrile, and methanol (50:50) and potassium phosphate monobasic (20 mM, pH: 3.40) were delivered in an isocratic fashion at a flow rate of 1 mL/min. The fluorescence detector (FL, G1321B, Agilent, Germany) was at an excitation wavelength of 280 nm and an emission wavelength of 450 nm. […]
# (§3) The plasma concentration–time curves obtained after each treatment in the individual animals were fitted with the WinNonlin software program (Version 5.2, Pharsight Corporation, Mountain View, CA, USA). The pharmacokinetic parameters for each animal were analyzed using non-compartmental model analysis. […]
# The mean residence time (MRT) was calculated as follows: MRT0→∞ = AUMC0→∞/AUC0→∞ […]
# [2] = Observation of systemic or local adverse effects during the study; details: rabbits; enrofloxacin per os 20 mg/kg or IM 10 mg/kg, propolis 100 mg resin/kg per os
# Procedure: The significance of the results was analyzed pharmacokinetically.
# as §1
# [3] = Plasma pharmacokinetics after intramuscular enrofloxacin alone or with per os propolis (HPLC-FL, non-compartmental analysis); details: after ENR 10 mg/kg IM alone
# Procedure: as §1, §2
# The mobile phase consisted of acetonitrile, and methanol (50:50) and potassium phosphate monobasic (20 mM, pH: 3.40) were delivered in an isocratic fashion at a flow rate of 1 mL/min. The fluorescence detector (FL, G1321B, Agilent, Germany) was at an excitation wavelength of 280 nm and an emission wavelength of 450 nm. The Photo Diode Array Detector (DAD) was set at a wavelength of 279 nm for marbofloxacin (I.S.) analysis. The injection volume was 50 µL throughout the analysis, and a chromatographic analysis was completed in 10 min for plasma samples following injection. […]
# as §3
# The mean residence time (MRT) was calculated as follows: MRT0→∞ = AUMC0→∞/AUC0→∞
# Terminal half-life (T1/2λz) was calculated as follows: T1/2λz= −ln(2)/λz where λz represents the first-order rate constant associated with the terminal (log-linear) portion of the curve.
# The pharmacokinetic parameters are reported as mean (±SD). Harmonic means were calculated for T1/2λz and MRT0–∞. […] Non-normally distributed data were analyzed by a non-parametric Mann–Whitney U-Test; meanwhile, normally distributed data were compared by independent t-test using SPSS Statistics 23.0 (IBM Corp, Armonk, NY, USA). […]
# [4] = 16 volunteers; subtherapeutic doses with propolis (375 mg/day); ref [21]; cited from earlier work
# [5] = propolis coadministered with duloxetine; ref [19]; cited from earlier work
smiles,measurement,setting,value
O=C(O)c1cn(C2CC2)c2cc(N3CCNCC3)c(F)cc2c1=O [CPR + PP],AUMC0-∞ (dose-normalized),[1]; after ENR 20 mg/kg per os with propolis 100 mg resin/kg,63.99±17.18 µg.h2/ml
"O=C(O)c1cn(C2CC2)c2cc(N3CCNCC3)c(F)cc2c1=O [CPR, ciprofloxacin]",AUMC0-∞ (dose-normalized),[1]; after ENR 20 mg/kg per os alone,27.72±13.72 µg.h2/ml
"CCN1CCN(c2cc3c(cc2F)c(=O)c(C(=O)O)cn3C2CC2)CC1 [ENR, enrofloxacin]",systemic or local adverse effects,[2],neither systemic nor local adverse effects were observed
same,AUMC0-∞ (dose-normalized),"[3]; dose-normalized, rabbit plasma, CPR = metabolite of ENR",59.21±18.78 µg.h2/ml
same,Cmax,"[3]; female, New Zealand White, rabbit, plasma, im, 10 mg/kg, Cmax, n = 6, CPR = metabolite of ENR",2980 ± 350 ng/mL
same,Tmax,"[3]; female, New Zealand White, rabbit, plasma, im, 10 mg/kg, Tmax, n = 6, CPR = metabolite of ENR",28.2 ± 4.8 min
Cn1c(=O)c2c(ncn2C)n(C)c1=O [caffeine],change of AUC with propolis,[4],decreased
CNCC[C@H](Oc1cccc2ccccc12)c1cccs1 [duloxetine],increase in AUC with propolis coadministration,[5],20–30%
same,increase in Cmax with propolis coadministration,[5],20–30%
CCCCc1nc(Cl)c(CO)n1Cc1ccc(-c2ccccc2-c2nn[nH]n2)cc1 [losartan],change of AUC with propolis,[4],decreased
Cc1ncc2n1-c1ccc(Cl)cc1C(c1ccccc1F)=NC2 [midazolam],change of AUC with propolis,[4],increased
COc1ccc2[nH]c([S+]([O-])Cc3ncc(C)c(OC)c3C)nc2c1 (stereo not drawn) [omeprazole],change of AUC with propolis,[4],increased

# From publication PMC12299926 (Pharmaceuticals, 2025)
